# US20140243239A1, “MULTIPLEXED KINASE INHIBITOR BEADS AND USES THEREOF” (University of North Carolina at Chapel Hill, priority 2011, published 2014)
# Experiments:
# ERK1/2 = assay: Western blot of MEK/ERK signaling in SUM159 cells; type: cell-based, human; settings: 15 min-4 h, SUM159 and MDA-MB-231 cells
# Excerpt: Detailed methods and antibodies are provided in Supplemental Experimental Procedures.
# (§1) Western blotting: Proteins from cell lysates were separated by SDS-PAGE chromatography, transferred to nitrocellulose membranes, and probed with the indicated primary antibodies. Antibodies recognizing pAKT (S473), pAKT (T308), AURA, pAXL (Y702), AXL, c-Myc, DDR1, EGFR, pERK1/2 (T202/Y204), pHER3 (Y1197), MAX, pMEK1/2 (S217/S221), MEK1/2, MKP3, pP70S6K (T389), pPDGFRβ (Y751), pPDGFRβ (Y1009), pPDGFR (Y857), PDGFRβ, pRAF (S338), pRSK1 (T359/S363), pVEGFR2 (Y1175), VEGFR2 were obtained from Cell Signaling Technology. Antibodies for Cyclin A2, Cyclin B1, Cyclin D1, ERK2, RAF, and pRAF (S259) were obtained from Santa Cruz Biotechnology. The antibody recognizing Bim was obtained from Chemicon. The antibody recognizing p-c-Myc (S62) was obtained from Abeam. Secondary HRP-anti-rabbit and HRP-anti-goat secondary antibodies were from Jackson Immunoresearch Laboratories and Santa Cruz Biotechnology, respectively. Western blots were visualized by incubation with SuperSignal West Pico Chemiluminescent Substrate (Thermo Scientific).
# C3Tag tumors = assay: In vivo tumorigenesis experiment, C3Tag TNBC GEMM (tumor volume); design: species or system mouse; settings: 21 days, AZD6244 20 mg/kg, sorafenib 30 mg/kg in diet
# Description: In vivo tumorigenesis experiments: Animal handling and procedures were approved by the University of North Carolina at Chapel Hill Institutional Animal Care and Use Committee and followed the NIH guidelines. Male C3Tag mice were bred with wild type females to produce experimental offspring. Mice were examined for tumors weekly until a palpable mass was found. Treatment began the same day. Tumor size was assessed twice weekly by caliper measurements of tumor areas ((width)2×length))/2 for 21 days. Percent change of tumor volume was calculated using (Final volume−Initial Volume)/Initial Volume and graphed using R (http://www.r-project.org/). Drugs were incorporated into the diet of mice to achieve a daily dose of AZD6244 20 mg/kg and sorafenib 30 mg/kg. Food was provided ab libitum and the amount of daily food intake was pre-determined using Jackson Labs Phenome Database. Tumors at harvest were cut in half and either snap-frozen in liquid nitrogen and stored at −80° C. or placed in neutral buffered 10% formalin solution.
# RTKs = assay: RTK tyrosine phosphorylation/expression in SUM159 cells (RTK arrays, western blot); type: cell-based, human; settings: 5 μM AZD6244; 50 nM BEZ235 (FIG. 3H)
# Description: Western blotting and RTK arrays: Western blotting and RTK array analysis were performed as previously described (Amin et al., 2010). Amin et al. 2010 Sci Transl Med 2, 16ra17. Detailed methods and antibodies are provided in Supplemental Experimental Procedures.
# as §1
# RTK arrays: Cells were harvested in RTK array lysis buffer containing 20 mM Tris-HCl (pH 8.0), 1% NP-40, 10% glycerol, 137 mM NaCl, 2 mM EDTA, 1×EDTA-free protease inhibitor cocktail (Roche), and 1% each of phosphatase inhibitor cocktails 1 and 2 (Sigma). After incubating on ice for 20 minutes, cell debris was pelleted at 4° C. Lysates (500 μg protein) were applied to R&D Systems Proteome Profiler™ Human Phospho-RTK antibody arrays. Washing and secondary antibody steps were performed according to the manufacturer“s instructions. RTK arrays were visualized by SuperSignal West Pico Chemiluminescent Substrate (Thermo Scientific).
structure (smiles),measurement,setting,value
Cn1cnc2c(F)c(Nc3ccc(Br)cc3Cl)c(C(=O)NOCCO)cc21 [AZD6244],"MEK and ERK, early response",ERK1/2,rapidly inhibited
same,mice with tumor regression,C3Tag tumors,30%
same,RTK phosphorylation profile,RTKs,"induced PDGFRβ, VEGFR2 and AXL phosphorylation"
